ChEMBL document CHEMBL1201862, “PubChem BioAssay data set” (2004)
Active and inactive are the calls of the source.

What was measured:
[1] = target: Cytochrome P450 3A4 (Homo sapiens, UniProt P08684);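 note: CYP3A4 tested as one member of a cytochrome P450 panel screen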
[2] = restored growth of temperature-sensitive Burl-1 yeast – whole organism, S. cerevisiae, Burl-1 ts mutant, luminescence, counter-screen for SUMOylation pathway inhibitor project, dose response (AID 463199); type: functional
[3] = target: Dual specificity protein phosphatase 3 (Homo sapiens, UniProt P51452); assay: SAR VHR1 Fluorescent Assay for In Vitro dose response studies Set 2. [Related pubchem assays (depositor defined):AID1654, AID1661, AID1878]; type: functional
Sequence of Dual specificity protein phosphatase 3 (P51452 whole entry): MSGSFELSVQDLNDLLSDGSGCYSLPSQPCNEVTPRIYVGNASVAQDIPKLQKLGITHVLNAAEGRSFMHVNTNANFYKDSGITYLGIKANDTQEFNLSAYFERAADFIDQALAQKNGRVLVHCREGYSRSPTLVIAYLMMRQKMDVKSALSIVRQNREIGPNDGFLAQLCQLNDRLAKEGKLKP

[4] = target: Dual specificity protein phosphatase 6 (Rattus norvegicus, UniProt Q64346); type: functional;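 note: confirmatory in vitro dose-response testing of MKP-3 inhibition; recombinant His-tagged MKP-3 made in E. coli BL21 with OMFP substrate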
Sequence of Dual specificity protein phosphatase 6 (Q64346 whole entry, the tested form may be a part): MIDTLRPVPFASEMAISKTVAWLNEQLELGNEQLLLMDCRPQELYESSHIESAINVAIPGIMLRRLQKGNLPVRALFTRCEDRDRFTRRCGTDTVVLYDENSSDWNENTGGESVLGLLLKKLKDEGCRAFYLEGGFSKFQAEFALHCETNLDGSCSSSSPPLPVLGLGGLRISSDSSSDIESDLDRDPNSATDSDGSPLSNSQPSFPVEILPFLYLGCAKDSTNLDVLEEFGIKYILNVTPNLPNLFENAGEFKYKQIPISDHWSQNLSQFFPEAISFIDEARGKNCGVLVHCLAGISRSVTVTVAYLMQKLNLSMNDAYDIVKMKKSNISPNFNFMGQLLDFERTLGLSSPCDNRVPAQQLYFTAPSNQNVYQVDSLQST

[5] = target: T1, RNA-binding protein pos-1 (Caenorhabditis elegans, UniProt G5EF15); assay: disruptors of C. elegans POS-1 RNA interaction – biochemical, fluorescence polarization, dose response (AID 1964);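 note: purified POS-1 fused to maltose binding protein made in E. coli; potency of compounds blocking POS-1 binding to fluorescent RNA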
T1 sequence (G5EF15 whole entry): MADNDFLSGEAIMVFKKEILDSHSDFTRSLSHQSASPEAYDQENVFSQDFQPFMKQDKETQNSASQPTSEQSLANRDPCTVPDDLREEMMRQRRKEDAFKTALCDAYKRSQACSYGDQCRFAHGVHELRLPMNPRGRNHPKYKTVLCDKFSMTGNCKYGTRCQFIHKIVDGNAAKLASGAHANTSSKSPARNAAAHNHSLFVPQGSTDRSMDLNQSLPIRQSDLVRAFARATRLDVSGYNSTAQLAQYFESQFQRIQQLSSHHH

[6] = target: T2, Zinc finger protein mex-5 (Caenorhabditis elegans, UniProt Q9XUB2); assay: potency of MEX-5 RNA-binding blockers – biochemical, C. elegans, fluorescence polarization, dose response (AID 1960)
T2 sequence (Q9XUB2 whole entry): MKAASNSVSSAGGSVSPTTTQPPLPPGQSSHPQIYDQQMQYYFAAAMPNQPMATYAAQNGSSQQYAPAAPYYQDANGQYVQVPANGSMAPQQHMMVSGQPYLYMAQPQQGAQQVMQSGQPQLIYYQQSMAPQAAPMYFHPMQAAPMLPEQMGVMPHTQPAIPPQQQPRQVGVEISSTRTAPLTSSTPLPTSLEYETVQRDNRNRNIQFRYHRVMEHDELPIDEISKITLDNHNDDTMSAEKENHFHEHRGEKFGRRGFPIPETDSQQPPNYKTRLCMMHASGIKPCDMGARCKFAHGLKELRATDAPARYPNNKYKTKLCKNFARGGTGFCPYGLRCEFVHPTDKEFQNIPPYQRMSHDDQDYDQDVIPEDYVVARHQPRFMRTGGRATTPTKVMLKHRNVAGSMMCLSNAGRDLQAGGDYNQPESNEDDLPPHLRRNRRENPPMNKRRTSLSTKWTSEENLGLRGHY

[7] = target: UDP-galactopyranose mutase (Mycobacterium tuberculosis, UniProt P9WIQ1); assay: Inhibitors of Mycobacterium tuberculosis UDP-galactopyranose mutase (UGM) enzyme Measured in Biochemical System Using Plate Reader - 2105-02_Inhibitor_Dose_CherryPick_Activity. [Related pubchem assays (depositor defined):AID504439]
Sequence of UDP-galactopyranose mutase (P9WIQ1 whole entry): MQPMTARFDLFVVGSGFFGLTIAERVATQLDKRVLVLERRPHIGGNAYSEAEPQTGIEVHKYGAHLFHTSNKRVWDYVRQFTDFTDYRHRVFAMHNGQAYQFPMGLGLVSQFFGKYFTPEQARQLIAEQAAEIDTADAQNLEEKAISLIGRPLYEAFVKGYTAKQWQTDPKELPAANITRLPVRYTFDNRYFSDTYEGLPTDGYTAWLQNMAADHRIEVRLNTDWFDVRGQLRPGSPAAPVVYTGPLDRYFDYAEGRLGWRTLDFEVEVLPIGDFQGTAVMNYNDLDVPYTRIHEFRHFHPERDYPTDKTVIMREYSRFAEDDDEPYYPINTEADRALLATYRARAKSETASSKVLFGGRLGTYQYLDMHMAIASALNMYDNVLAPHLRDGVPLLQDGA

Sequence of Cytochrome P450 3A4 (P08684 whole entry): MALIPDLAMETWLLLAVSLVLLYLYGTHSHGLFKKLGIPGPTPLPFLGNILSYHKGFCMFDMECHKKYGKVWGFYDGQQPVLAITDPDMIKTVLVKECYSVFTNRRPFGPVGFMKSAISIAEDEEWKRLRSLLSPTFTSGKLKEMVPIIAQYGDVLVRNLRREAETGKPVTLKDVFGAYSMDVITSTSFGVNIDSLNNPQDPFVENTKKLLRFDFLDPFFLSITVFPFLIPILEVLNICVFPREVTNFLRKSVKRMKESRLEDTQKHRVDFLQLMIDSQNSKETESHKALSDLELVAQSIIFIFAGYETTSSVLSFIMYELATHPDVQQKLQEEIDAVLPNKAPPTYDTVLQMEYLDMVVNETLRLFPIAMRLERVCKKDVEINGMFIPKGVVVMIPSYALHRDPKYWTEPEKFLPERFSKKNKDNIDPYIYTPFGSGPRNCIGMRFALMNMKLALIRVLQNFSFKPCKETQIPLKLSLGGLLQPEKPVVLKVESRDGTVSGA

Compound: CC(=O)Nc1ccccc1C(=O)OCc1ccc(C(=O)c2ccccc2)cc1
- AC50 [1]: inconclusive

Compound: Cc1ccc(C2C(C(=O)c3cccs3)=C(O)C(=O)N2c2ccc(S(N)(=O)=O)cc2)cc1 (configuration not stated)
- AC50 [2]: 48.5 µM (active)

Compound: NS(=O)(=O)c1cc(C(=O)NC2CCSc3ccccc32)c(Cl)cc1Cl (configuration not stated)
- IC50 [3]: > 100 µM (inactive)
- IC50 [4]: > 100 µM (inactive)

Compound: CCOCCCn1/c(=N/C(=O)c2cccs2)c(C#N)cc2c(=O)n3ccccc3nc21
- EC50 [5]: 28.9 µM (active)
- EC50 [6]: 40 µM (inconclusive)
- AC50 [7]: > 500 µM (inactive)
